The results in this text go back to patent US4451457A, “Cyclodextrin and method for promoting the proliferation of intestinal bifidobacteria” (Kureha Kagaku Kogyo Kabushiki Kaisha, priority 1981, dated 1984).

Bounds are passed on as bounds.

One data set has as its system rat. Kind of data set: Acute toxicity, LD50 in rats. The data set is classed as in vivo. As to conditions: female rat. How it is done:
(§1) Each cyclodextrin (α-, β- and γ-) was administered via the following routes to rats and mice and LD50 was measured.

Data set [1] is described as follows: Acute toxicity, LD50 in rats. The data set is classed as in vivo, rat. As to conditions: in vivo, male rat. How it is done:
as §1

The next data set deals with Mouse. Kind of data set: Acute toxicity, LD50 in mice. The class given is in vivo. The conditions noted are these: female mouse. As for the experimental part: as §1
A short description of data set [2]: Acute toxicity, LD50 in mice. The class given is in vivo, Mouse. As to conditions: in vivo, male mouse. How it is done: as §1
For the next data set, the system named is Lactobacilli. Kind of data set: Viable count of Lactobacilli in feces of mice. The class given is in vivo, female C3H/He mice. The conditions noted are these: for Rate of proliferation (B/A), Lactobacilli / Viable count 7 days after (B) administration, Lactobacilli: 2.0 g/kg/day; for Rate of proliferation (B/A), Lactobacilli: 7 days after / before; for Viable count 7 days after (B) administration, Lactobacilli / Viable count before (A) administration, Lactobacilli: average of five mice. As for the experimental part: (§2) Each solution or suspension was administered to female C3H/He mice at 8th week after birth, one group consisting of 5 animals and the number of groups being four, the dosage being 2.0 g of cyclodextrin/kg of body weight/day, continuously for 2 weeks.
(§3) Before and 7 days after the administration, feces of each mouse was collected, and after diluting the collected feces with 100 times by weight of an anaerobic phosphate buffer and grinding the diluted feces, each 0.1 ml of the ground feces was inoculated on each culture medium (refer to Table 3) for the specified bacterial species, and the thus inoculated culture media were incubated at 37° C. for one to five days under the aerobic conditions or anaerobic conditions (according to the anaerobic grove box method).
(§4) After the incubation was over, the number of bifidobacteria, Escherichia coli, Lactobacilli and Bacteroides sp. in the culture medium was counted. The results are shown in Tables 4 to 7, the counts being the average of five mice.

Another data set has as its system Escherichia coli. Kind of data set: Viable count of Escherichia coli in feces of mice. The data set is classed as in vivo, female C3H/He mice. The conditions noted are these: for Rate of proliferation (B/A), Escherichia coli / Viable count 7 days after (B) administration, Escherichia coli: 2.0 g/kg/day; for Rate of proliferation (B/A), Escherichia coli: 7 days after / before; for Viable count 7 days after (B) administration, Escherichia coli / Viable count before (A) administration, Escherichia coli: average of five mice. As for the experimental part: as §2, §3
DHL agar aerobic, 37° C., one day
as §4

A further data set has as its system bifidobacteria. Kind of data set: Intestinal proliferation of bifidobacteria in mice, viable count in feces. The class given is in vivo, female C3H/He mice. As to conditions: for Rate of proliferation (B/A), bifidobacteria / Viable count 7 days after (B) administration, bifidobacteria: 2.0 g/kg/day; for Rate of proliferation (B/A), bifidobacteria: 7 days after / before; for Viable count 7 days after (B) administration, bifidobacteria / Viable count before (A) administration, bifidobacteria: average of five mice. As for the experimental part: The activity of cyclodextrin in promoting the intestinal proliferation of bifidobacteria was recognized by the results of test as described below. Namely, cyclodextrin was administered orally to test animals such as mouse at the dose of 2 g/kg of body weight per day for 2 weeks, and the number of viable intestinal bacteria such as bifidobacteria, Escherichia coli, Lactobacilli and Bacteroides sp. in the feces of the test animal seven days after the administration were counted by the conventional method. […] Namely, when the bifidobacteria-proliferating agent of the invention is administered to the living body, it is possible to proliferate only bifidobacteria in the intestine of the living body without disturbing the intraintestinal bacterial flora.
as §2, §3
BS agar anaerobic, 37° C., 5 days
as §4

The test system of the next data set is Bacteroides sp. Kind of data set: Viable count of Bacteroides sp. in feces of mice. The class given is in vivo, female C3H/He mice. The conditions noted are these: for Rate of proliferation (B/A), Bacteroides sp. / Viable count 7 days after (B) administration, Bacteroides sp.: 2.0 g/kg/day; for Rate of proliferation (B/A), Bacteroides sp.: 7 days after / before; for Viable count 7 days after (B) administration, Bacteroides sp. / Viable count before (A) administration, Bacteroides sp.: average of five mice. How it is done:
as §2, §3
NBGT agar same as above
as §4

Usually LD50 stands for the dose at which mortality reaches 50%. Higher therefore signals lower toxicity. For `OC[C@H]1O[C@@H]2O[C@H]3[C@H](O)[C@@H](O)[C@@H](O[C@H]4[C@H](O)[C@@H](O)[C@@H](O[C@H]5[C@H](O)[C@@H](O)[C@@H](O[C@H]6[C@H](O)[C@@H](O)[C@@H](O[C@H]7[C@H](O)[C@@H](O)[C@@H](O[C@H]1[C@H](O)[C@H]2O)O[C@@H]7CO)O[C@@H]6CO)O[C@@H]5CO)O[C@@H]4CO)O[C@@H]3CO` [α-cyclodextrin], the 50% lethal dose (LD50) with rat (intraperitoneal) was greater than 1200 mg/kg; in the data set on rat (oral), greater than 12000 mg/kg; in the data set with rat (subcutaneous) it was greater than 1500 mg/kg; in data set [1] (ip, intraperitoneal) it was greater than 1200 mg/kg; in data set [1] (sc, subcutaneous), greater than 1500 mg/kg; in data set [1] (oral), greater than 12000 mg/kg. The median lethal dose (LD50) was greater than 900 mg/kg in the data set with Mouse (intraperitoneal); greater than 12500 mg/kg with Mouse (oral); greater than 900 mg/kg in the data set with Mouse (subcutaneous); greater than 900 mg/kg in data set [2] (ip, intraperitoneal); greater than 900 mg/kg in data set [2] (sc, subcutaneous); greater than 12500 mg/kg in data set [2] (oral).

With `OC[C@H]1O[C@@H]2O[C@H]3[C@H](O)[C@@H](O)[C@@H](O[C@H]4[C@H](O)[C@@H](O)[C@@H](O[C@H]5[C@H](O)[C@@H](O)[C@@H](O[C@H]6[C@H](O)[C@@H](O)[C@@H](O[C@H]7[C@H](O)[C@@H](O)[C@@H](O[C@H]8[C@H](O)[C@@H](O)[C@@H](O[C@H]1[C@H](O)[C@H]2O)O[C@@H]8CO)O[C@@H]7CO)O[C@@H]6CO)O[C@@H]5CO)O[C@@H]4CO)O[C@@H]3CO` [β-cyclodextrin], the “Rate of proliferation (B/A), Lactobacilli” value (“Rate … Lactobacilli” for short) in the data set on Lactobacilli stood at 1.47. Besides, the “Viable count 7 days after (B) administration, Lactobacilli” value (“Viable count 7 days … Lactobacilli” below) in the data set with Lactobacilli is 2.2 × 10^9 per g of the feces. For the same compound, the “Viable count before (A) administration, Lactobacilli” value (from here on “Viable count before … Lactobacilli”) in the data set on Lactobacilli was 1.5 × 10^9 per g of the feces. Further, the median lethal dose (LD50) was greater than 1200 mg/kg in the data set with rat (intraperitoneal); greater than 12000 mg/kg in the data set with rat (oral); greater than 1500 mg/kg with rat (subcutaneous); greater than 1200 mg/kg in data set [1] (ip, intraperitoneal); greater than 1500 mg/kg in data set [1] (sc, subcutaneous); greater than 12000 mg/kg in data set [1] (oral). In addition, the 50% lethal dose (LD50) in the data set on Mouse (intraperitoneal) is greater than 900 mg/kg; in the data set on Mouse (oral) it was greater than 12500 mg/kg; with Mouse (subcutaneous), greater than 900 mg/kg; in data set [2] (ip, intraperitoneal) it was greater than 900 mg/kg; in data set [2] (sc, subcutaneous) it was greater than 900 mg/kg; in data set [2] (oral), greater than 12500 mg/kg. Moreover, the “Rate of proliferation (B/A), Escherichia coli” value (shortened to “Rate … Escherichia coli”) in the data set with Escherichia coli is 1.45. Moreover, in the data set with Escherichia coli, the “Viable count 7 days after (B) administration, Escherichia coli” value (“Viable count 7 days … Escherichia coli” for short) is on record as 5.8 × 10^6 per g of the feces. Further, in the data set on Escherichia coli, the “Viable count before (A) administration, Escherichia coli” value (shortened to “Viable count before … Escherichia coli”) is listed as 4.0 × 10^6 per g of the feces. Besides, the “Rate of proliferation (B/A), bifidobacteria” value (“Rate … bifidobacteria” below) in the data set on bifidobacteria was determined as 1385. Also, the “Viable count 7 days after (B) administration, bifidobacteria” value (“Viable count 7 days … bifidobacteria” for short) with bifidobacteria is given as 1.8 × 10^8 per g of the feces. In addition, in the data set on bifidobacteria, the “Viable count before (A) administration, bifidobacteria” value (“Viable count before … bifidobacteria” for short) is on record as 1.3 × 10^5 per g of the feces. Further, the “Rate of proliferation (B/A), Bacteroides sp.” value (“Rate … Bacteroides sp.” for short) in the data set on Bacteroides sp. came out at 1.06. The “Viable count 7 days after (B) administration, Bacteroides sp.” value (shortened to “Viable count 7 days … Bacteroides sp.”) with Bacteroides sp. is 3.7 × 10^8 per g of the feces. Moreover, in the data set on Bacteroides sp., the “Viable count before (A) administration, Bacteroides sp.” value (shortened to “Viable count before … Bacteroides sp.”) is listed as 3.5 × 10^8 per g of the feces.

Regarding `OC[C@H]1O[C@@H]2O[C@H]3[C@H](O)[C@@H](O)[C@@H](O[C@H]4[C@H](O)[C@@H](O)[C@@H](O[C@H]5[C@H](O)[C@@H](O)[C@@H](O[C@H]6[C@H](O)[C@@H](O)[C@@H](O[C@H]7[C@H](O)[C@@H](O)[C@@H](O[C@H]8[C@H](O)[C@@H](O)[C@@H](O[C@H]9[C@H](O)[C@@H](O)[C@@H](O[C@H]1[C@H](O)[C@H]2O)O[C@@H]9CO)O[C@@H]8CO)O[C@@H]7CO)O[C@@H]6CO)O[C@@H]5CO)O[C@@H]4CO)O[C@@H]3CO` [γ-cyclodextrin], the “Rate … Lactobacilli” value in the data set with Lactobacilli is 0.78. The “Viable count 7 days … Lactobacilli” value in the data set with Lactobacilli is reported as 7.0 × 10^8 per g of the feces. For the same compound, in the data set with Lactobacilli, the “Viable count before … Lactobacilli” value was 9.0 × 10^8 per g of the feces. Further, the LD50 with rat (intraperitoneal) was greater than 1200 mg/kg; in the data set on rat (oral) it was greater than 12000 mg/kg; in the data set on rat (subcutaneous) it was greater than 1500 mg/kg; in data set [1] (ip, intraperitoneal), greater than 1200 mg/kg; in data set [1] (sc, subcutaneous) it was greater than 1500 mg/kg; in data set [1] (oral), greater than 12000 mg/kg. The LD50 with Mouse (intraperitoneal) was greater than 900 mg/kg; in the data set with Mouse (oral), greater than 12500 mg/kg; in the data set on Mouse (subcutaneous) it was greater than 900 mg/kg; in data set [2] (ip, intraperitoneal), greater than 900 mg/kg; in data set [2] (sc, subcutaneous) it was greater than 900 mg/kg; in data set [2] (oral), greater than 12500 mg/kg. Also, the “Rate … Escherichia coli” value in the data set on Escherichia coli came out at 0.93. Moreover, the “Viable count 7 days … Escherichia coli” value in the data set on Escherichia coli is 7.0 × 10^6 per g of the feces. Also, the “Viable count before … Escherichia coli” value with Escherichia coli is listed as 7.5 × 10^6 per g of the feces. In the data set on bifidobacteria, the “Rate … bifidobacteria” value is on record as 90. Besides, the “Viable count 7 days … bifidobacteria” value with bifidobacteria is 1.8 × 10^6 per g of the feces. Moreover, the “Viable count before … bifidobacteria” value with bifidobacteria is 2.0 × 10^4 per g of the feces. The “Rate … Bacteroides sp.” value with Bacteroides sp. is given as 3.00. For the same compound, in the data set on Bacteroides sp., the “Viable count 7 days … Bacteroides sp.” value was 3.0 × 10^8 per g of the feces. Moreover, the “Viable count before … Bacteroides sp.” value in the data set with Bacteroides sp. is listed as 1.0 × 10^8 per g of the feces.

Turning to dextrin [reference compound], in the data set on Lactobacilli, the “Rate … Lactobacilli” value amounted to 1.20; the “Viable count 7 days … Lactobacilli” value is listed as 6.0 × 10^8 per g of the feces; the “Viable count before … Lactobacilli” value is listed as 5.0 × 10^8 per g of the feces. In the data set with Escherichia coli, the “Rate … Escherichia coli” value is on record as 0.80; the “Viable count 7 days … Escherichia coli” value is reported as 7.2 × 10^6 per g of the feces; the “Viable count before … Escherichia coli” value is 9.0 × 10^6 per g of the feces. Moreover, in the data set with bifidobacteria, the “Rate … bifidobacteria” value amounted to 0.70; the “Viable count 7 days … bifidobacteria” value is reported as 1.6 × 10^5 per g of the feces; the “Viable count before … bifidobacteria” value is on record as 2.3 × 10^5 per g of the feces. Moreover, in the data set on bifidobacteria (mouse, oral, Table 7), the “activity to the proliferation of bifidobacteria, in words” value was “did not exhibit such an activity”. In addition, in the data set on Bacteroides sp., the “Rate … Bacteroides sp.” value is listed as 2.50; the “Viable count 7 days … Bacteroides sp.” value is listed as 8.0 × 10^8 per g of the feces; the “Viable count before … Bacteroides sp.” value is recorded as 3.2 × 10^8 per g of the feces.
